The text below walks through data of US11999739B2, “Antimicrobials methods of making and using the same” (BIOVERSYS AG, priority 2016, dated 2024).

Test [1] relates to Staphylococcus aureus (S. aureus) 11540 strain. Nature of the test: Standard microdilution MIC assay, S. aureus. The class given is cell-based. An outline of the steps:
(§1)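 Broth microdilution per CLSI M7-A8 guidelines, with reference-strain quality control run in the same design; MIC determined per strain. Activity scored +/− against a 16 micrograms/mL cutoff.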

In test [2] the test system is Escherichia coli strain ATCC25922. Nature of the test: Standard microdilution MIC assay, E. coli. The class given is cell-based. The method, boiled down:
as §1

For the compound `C=C[C@H](N)CCCc1cc(Cl)c(F)c(-c2cc3cn(-c4ccc([C@H](C)NCCCNC(C)=N)c(F)c4)c(=O)nc3[nH]2)c1` [Compound 111], the MIC in test [1] and in test [2] was no more than 16 µg/mL each time.

Turning to `COC[C@H](N)CCCc1cc(-c2cc3cn(-c4ccc([C@@H]5CCC[C@@H](CCNC(C)=N)N5)c(SC)c4)c(=O)nc3[nH]2)cc(C(F)(F)F)c1` [Compound 202], the MIC in test [1] and in test [2] was no more than 16 µg/mL each time.

Consider `CC(=N)NCC[C@@H]1CCC[C@@H](c2ccc(-n3cc4cc(-c5cc(CCCC6(N)CC6)cc(Cl)c5F)[nH]c4nc3=O)cc2F)N1` [Compound 169], for which the MIC in test [1] and in test [2] was no more than 16 µg/mL each time.

Take `C=C[C@H](N)CCCc1cc(Cl)c(F)c(-c2cc3cn(-c4ccc([C@@H]5CCC[C@@H](CCNC(C)=N)N5CCCF)c(F)c4)c(=O)nc3[nH]2)c1` [Compound 355]: the MIC in test [1] and in test [2] was no more than 16 µg/mL each time.

For the compound `CC(=N)NCC[C@@H]1CCC[C@@H](c2c(F)cc(-n3cc4cc(-c5cc(CCC[C@H](C)N)cc(Cl)c5F)[nH]c4nc3=O)cc2N2CCOCC2)N1` [Compound 282], the MIC in test [1] and in test [2] was no more than 16 µg/mL in each case.

On to `CC(=N)NCC[C@H](CNc1ncc[nH]1)N[C@@H](C)c1ccc(-n2cc3cc(-c4cc(CCC[C@H](C)N)cc(Cl)c4F)[nH]c3nc2=O)cc1` [Compound 165], for which the MIC in test [1] and in test [2] was no more than 16 µg/mL in each case.

Consider `C=C[C@@H](N)CCCc1cc(Cl)c(F)c(-c2cc3cn(-c4ccc([C@@H]5COC[C@@H](CCNC(C)=N)N5)cc4)c(=O)nc3[nH]2)c1` [Compound 56], for which the MIC in test [1] and in test [2] was no more than 16 µg/mL throughout.

Turning to `CSc1cc(-n2cc3cc(-c4cc(CCC[C@@H](N)CO)cc(Cl)c4F)[nH]c3nc2=O)ccc1[C@@H]1CCC[C@@H](CCNC(C)=N)N1` [Compound 116], the MIC in test [1] and in test [2] was no more than 16 µg/mL throughout.

For the compound `C=C[C@@H](CCNC(C)=N)NC(=O)c1ccc(-n2cc3cc(-c4cc(CCC[C@H](C)N)cc(Cl)c4F)[nH]c3nc2=O)cc1` [Compound 60], the MIC in test [1] and in test [2] was no more than 16 µg/mL in each case.

On to `C[C@H](N)CCCc1cc(Cl)c(F)c(-c2cc3cn(-c4ccc([C@@H]5CNC[C@H](CCNC(=N)CF)N5)cc4)c(=O)nc3[nH]2)c1` [Compound 49], for which the MIC in test [1] and in test [2] was no more than 16 µg/mL in each case.

Regarding `COCC(=N)NCC[C@@H]1CCC[C@@H](c2ccc(-n3cc4cc(-c5cc(CCC[C@H](C)N)cc(Cl)c5F)[nH]c4nc3=O)cc2)N1` [Compound 356], the MIC in test [1] and in test [2] was no more than 16 µg/mL in each case.

As to `CC(=N)N[C@@H](C)C[C@@H]1CCC[C@@H](c2ccc(-n3cc4cc(-c5cc(CCC[C@H](C)N)cc(Cl)c5F)[nH]c4nc3=O)cc2)N1` [Compound 253], the minimal inhibitory concentration (MIC) in test [1] and in test [2] was no more than 16 µg/mL throughout.

As for `CC(=N)NCC[C@@H]1CCC[C@@H](c2ccc(-n3cc4cc(-c5cc(CCC[C@H](C)N)cc(C(F)(F)F)c5)[nH]c4nc3=O)cc2F)N1CCCF` [Compound 328], the MIC in test [1] and in test [2] was no more than 16 µg/mL each time.

For the compound `CC(=N)NCC[C@H](CO)NCc1ccc(-n2cc3cc(-c4cc(CCC[C@H](C)N)cc(Cl)c4F)[nH]c3nc2=O)cc1` [Compound 18], the MIC in test [1] and in test [2] was no more than 16 µg/mL in each case.

In the case of `C=C[C@H](N)CCCc1cc(Cl)c(F)c(-c2cc3cn(-c4ccc([C@@H]5CCC[C@@H](CCNC(C)=N)N5CCCF)c(SC)c4)c(=O)nc3[nH]2)c1` [Compound 344], the MIC in test [1] and in test [2] was no more than 16 µg/mL each time.

As to `C=C[C@@H](CCNC(C)=N)N[C@@H](C)c1ccc(-n2cc3cc(-c4cc(CCC[C@@H](N)CF)cc(Cl)c4F)[nH]c3nc2=O)cc1F` [Compound 186], the minimum inhibitory concentration (MIC) in test [1] and in test [2] was no more than 16 µg/mL throughout.

On to `CN1[C@H](CCNC(=N)CF)CCC[C@H]1c1ccc(-n2cc3cc(-c4cc(CCC[C@@H](N)CO)cc(Cl)c4F)[nH]c3nc2=O)cc1` [Compound 122], for which the MIC in test [1] and in test [2] was no more than 16 µg/mL throughout.

As for `CC(=N)NCCCN[C@@H](C)c1ccc(-n2cc3cc(-c4cc(CCC[C@@H](N)C(F)(F)F)cc(Cl)c4F)[nH]c3nc2=O)cc1` [Compound 102], the MIC in test [1] and in test [2] was no more than 16 µg/mL each time.

On to `CC(=N)NCC[C@@H]1COC[C@@H](c2ccc(-n3cc4cc(-c5cc(CCC[C@@H](N)CO)cc(Cl)c5F)[nH]c4nc3=O)cc2)N1` [Compound 54], for which the MIC in test [1] and in test [2] was no more than 16 µg/mL each time.

Take `CC(=N)NCCCN[C@@H](CO)c1ccc(-n2cc3cc(-c4cc(CCC[C@@H](N)C5CC5)cc(Cl)c4F)[nH]c3nc2=O)cc1` [Compound 134]: the MIC in test [1] and in test [2] was no more than 16 µg/mL in each case.

With `C=CC(CCNC(=N)COC)NCc1ccc(-n2cc3cc(-c4cc(CCC[C@H](C)N)cc(Cl)c4F)[nH]c3nc2=O)cc1` (some centres unmarked) [Compound 34], the MIC in test [1] and in test [2] was no more than 16 µg/mL throughout.

In the case of `COc1cc(-n2cc3cc(-c4cc(CCC[C@@H](N)C5CC5)cc(C(F)(F)F)c4F)[nH]c3nc2=O)ccc1[C@@H]1CCC[C@@H](CCNC(C)=N)N1` [Compound 235], the MIC in test [1] and in test [2] was no more than 16 µg/mL throughout.

On to `C=C[C@@H](CCNC(C)=N)NCc1ccc(-n2cc3cc(-c4cc(CCC(F)(F)CN)cc(Cl)c4F)[nH]c3nc2=O)cc1` [Compound 105], for which the MIC in test [1] and in test [2] was no more than 16 µg/mL throughout.

Consider `CC(=N)NCC[C@@H]1CCC[C@@H](c2ccc(-n3cc4cc(-c5cc(CCC[C@@H](N)CO)cc(Cl)c5F)[nH]c4nc3=O)cc2)N1C` [Compound 121], for which the MIC in test [1] and in test [2] was no more than 16 µg/mL throughout.

On to `CC(=N)NCCCNCc1ccc(-n2cc3cc(-c4cc(CCCC(C)(C)N)cc(Cl)c4F)[nH]c3nc2=O)cc1F` [Compound 65], for which the MIC in test [1] and in test [2] was no more than 16 µg/mL throughout.

For `COc1cc(-n2cc3cc(-c4cc(CCC[C@@H](N)C5CC5)cc(C(F)(F)F)c4)[nH]c3nc2=O)ccc1[C@@H]1CCC[C@@H](CCNC(C)=N)N1` [Compound 243], the MIC in test [1] and in test [2] was no more than 16 µg/mL in each case.

On to `CC(=N)NCC[C@@H]1CCC[C@@H](c2ccc(-n3cc4cc(-c5cc(CCC[C@@H](N)CF)cc(C(F)(F)F)c5F)[nH]c4nc3=O)cc2)N1` [Compound 193], for which the MIC in test [1] and in test [2] was no more than 16 µg/mL throughout.

In the case of `CSCC(=N)NCC[C@H](CO)NCc1ccc(-n2cc3cc(-c4cc(CCC[C@H](C)N)cc(Cl)c4F)[nH]c3nc2=O)cc1` [Compound 41], the MIC in test [1] and in test [2] was no more than 16 µg/mL in each case.

Turning to `CC(=N)NCC[C@@H]1CCC[C@@H](c2ccc(-n3cc4cc(-c5cc(CCC[C@@H](N)CF)cc(Cl)c5F)[nH]c4nc3=O)cc2Cl)N1` [Compound 176], the MIC in test [1] and in test [2] was no more than 16 µg/mL in each case.

As for `COCCOCC(=N)NCC[C@@H]1CCC[C@@H](c2ccc(-n3cc4cc(-c5cc(CCC[C@H](C)N)cc(Cl)c5F)[nH]c4nc3=O)cc2)N1` [Compound 362], the MIC in test [1] and in test [2] was no more than 16 µg/mL each time.

Turning to `COC[C@H](N)CCCc1cc(-c2cc3cn(-c4ccc([C@@H]5CCC[C@@H](CCNC(C)=N)N5)c(F)c4)c(=O)nc3[nH]2)cc(C(F)(F)F)c1` [Compound 201], the MIC in test [1] and in test [2] was no more than 16 µg/mL in each case.

Turning to `C=C[C@H](N)CCCc1cc(Cl)c(F)c(-c2cc3cn(-c4ccc([C@H](C)N[C@@H](C=C)CCNC(C)=N)c(F)c4)c(=O)nc3[nH]2)c1` [Compound 184], the MIC in test [1] and in test [2] was no more than 16 µg/mL throughout.

As for `C=C[C@H](N)CCCc1cc(Cl)c(F)c(-c2cc3cn(-c4cc(F)c([C@@H]5CCC[C@@H](CCNC(C)=N)N5)c(F)c4)c(=O)nc3[nH]2)c1` [Compound 246], the MIC in test [1] and in test [2] was no more than 16 µg/mL throughout.

With `CC(=N)NCCCN[C@H](c1ccc(-n2cc3cc(-c4cc(CCC[C@H](C)N)cc(Cl)c4F)[nH]c3nc2=O)cc1)C(F)F` [Compound 159], the MIC in test [1] and in test [2] was no more than 16 µg/mL throughout.

With `CC(C)(CN)CCc1cc(Cl)c(F)c(-c2cc3cn(-c4ccc([C@@H]5CCC[C@@H](CCNC(=N)CF)N5)cc4)c(=O)nc3[nH]2)c1` [Compound 25], the minimum inhibitory concentration (MIC) in test [1] and in test [2] was no more than 16 µg/mL in each case.

With `CC(=N)NCC[C@@H](NCc1ccc(-n2cc3cc(-c4cc(CCC[C@@H](N)CF)cc(Cl)c4F)[nH]c3nc2=O)cc1)C1CC1` [Compound 218], the MIC in test [1] and in test [2] was no more than 16 µg/mL each time.

Consider `CSC[C@H](N)CCCc1cc(Cl)c(F)c(-c2cc3cn(-c4ccc([C@@H]5CCC[C@@H](CCNC(C)=N)N5)cc4)c(=O)nc3[nH]2)c1` [Compound 276], for which the minimum inhibitory concentration (MIC) in test [1] and in test [2] was no more than 16 µg/mL in each case.

For `CC(=N)NCC[C@@H]1COC[C@@H](c2ccc(-n3cc4cc(-c5cc(CCC[C@@H](N)C6CC6)cc(Cl)c5F)[nH]c4nc3=O)cc2)N1` [Compound 98], the MIC in test [1] and in test [2] was no more than 16 µg/mL in each case.

As for `C=C[C@H](N)CCCc1cc(Cl)c(F)c(-c2cc3cn(-c4ccc([C@@H]5CCC[C@@H](CCNC(C)=N)N5)c(F)c4)c(=O)nc3[nH]2)c1` [Compound 173], the MIC in test [1] and in test [2] was no more than 16 µg/mL in each case.

For the compound `CC(=N)NCC[C@@H]1CNC[C@@H](c2ccc(-n3cc4cc(-c5cc(CCC[C@H](C)N)cc(Cl)c5F)[nH]c4nc3=O)cc2)O1` [Compound 32], the MIC in test [1] and in test [2] was no more than 16 µg/mL in each case.

Consider `COC[C@@H](CCNC(C)=N)NCc1ccc(-n2cc3cc(-c4cc(CCC[C@H](C)N)cc(Cl)c4F)[nH]c3nc2=O)cc1` [Compound 189], for which the MIC in test [1] and in test [2] was no more than 16 µg/mL throughout.

Regarding `C=C[C@H](CCNC(=N)CF)NCc1ccc(-n2cc3cc(-c4cc(CCC[C@@H](N)C(F)(F)F)cc(Cl)c4F)[nH]c3nc2=O)cc1` [Compound 44], the figures for the MIC in test [1] and in test [2] were no more than 16 µg/mL and greater than 16 µg/mL, respectively.

Take `CC(=N)NCC[C@@H]1CCC[C@@H](c2ccc(-n3cc4cc(-c5cc(CCC[C@H](C)N)cc(Cl)c5F)[nH]c4nc3=O)cc2)N1CC(C)C` [Compound 369]: the MIC in test [1] and in test [2] was no more than 16 µg/mL in each case.
